Measurements taken from the supplement of paper PMC11923942.

Experiments:
[1] = GC retention time (DB-5MS, GC-APCI); higher = later elution
Protocol: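 Standards of hydrophobic organic contaminants were analysed by GC-APCI (positive mode, dry or wet source conditions) coupled to cyclic ion mobility-QTOF MS. CCS was measured for the base ion (sometimes a fragment ion) in N2 drift gas (one-pass mode, calibrated with a Waters 22-compound mix). 5 mL/min).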

[2] = collision cross section (N2, base ion); higher = larger ion cross section
Protocol: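 Standards of hydrophobic organic contaminants were analysed by GC-APCI (positive mode, dry or wet source conditions) coupled to cyclic ion mobility-QTOF MS. CCS was measured for the base ion (sometimes a fragment ion) in N2 drift gas (one-pass mode, calibrated with a Waters 22-compound mix).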

Compound | GC retention time [1] [min] | collision cross section [2] [Å²]
Brc1ccc(Oc2ccc(Br)cc2Br)cc1 [PBDE 28] (APCI source condition: Dry, base ion: M+.) | 20.1 | 154.31
Brc1cccc(Oc2ccc(Br)c(Br)c2)c1 [PBDE 35] (APCI source condition: Dry, base ion: M+.) | 20.3 | 154.86
Brc1ccc(Oc2ccc(Br)cc2Br)c(Br)c1 [PBDE 47] (APCI source condition: Dry, base ion: M+.) | 22.2 | 162.71
Brc1ccc(Oc2cc(Br)ccc2Br)c(Br)c1 [PBDE 49] (APCI source condition: Dry, base ion: M+.) | 21.8 | 163.07
Brc1ccc(Oc2ccc(Br)c(Br)c2)c(Br)c1 [PBDE 66] (APCI source condition: Dry, base ion: M+.) | 22.5 | 163.83
Brc1ccc(Oc2ccc(Br)c(Br)c2)cc1Br [PBDE 77] (APCI source condition: Dry, base ion: M+.) | 23 | 164.62
Brc1ccc(Oc2ccc(Br)c(Br)c2Br)c(Br)c1 [PBDE 85] (APCI source condition: Dry, base ion: M+.) | 25 | 170.22
Brc1ccc(Oc2cc(Br)c(Br)cc2Br)c(Br)c1 [PBDE 99] (APCI source condition: Dry, base ion: M+.) | 24.2 | 169.31
Brc1ccc(Oc2c(Br)cc(Br)cc2Br)c(Br)c1 [PBDE 100] (APCI source condition: Dry, base ion: M+.) | 23.7 | 169.85
Brc1cc(Br)c(Oc2cc(Br)c(Br)cc2Br)cc1Br [PBDE 153] (APCI source condition: Dry, base ion: M+.) | 26 | 180.67
Brc1cc(Br)c(Oc2cc(Br)c(Br)cc2Br)c(Br)c1 [PBDE 154] (APCI source condition: Dry, base ion: M+.) | 25.4 | 178.18
Brc1cccc(Oc2c(Br)c(Br)c(Br)c(Br)c2Br)c1Br [PBDE 173] (APCI source condition: Dry, base ion: M+.) | 30.2 | 185.08
Brc1cc(Br)c(Oc2cc(Br)c(Br)c(Br)c2Br)c(Br)c1 [PBDE 182] (APCI source condition: Dry, base ion: M+.) | 28.4 | 185.51
Brc1cc(Br)c(Oc2c(Br)cc(Br)c(Br)c2Br)cc1Br [PBDE 183] (APCI source condition: Dry, base ion: M+.) | 28.2 | 184.97
Brc1cc(Br)c(Oc2c(Br)cc(Br)c(Br)c2Br)c(Br)c1 [PBDE 184] (APCI source condition: Dry, base ion: M+.) | 27.8 | 181.4
Brc1ccc(Br)c(Oc2c(Br)c(Br)c(Br)c(Br)c2Br)c1 [PBDE 185] (APCI source condition: Dry, base ion: M+.) | 28.6 | 182.95
Brc1cc(Oc2c(Br)cc(Br)c(Br)c2Br)cc(Br)c1Br [PBDE 191] (APCI source condition: Dry, base ion: M+.) | 29 | 187.91
Clc1ccc(Cl)c(-c2c(Cl)ccc(Cl)c2Cl)c1Cl [PCB136] (APCI source condition: Dry, base ion: M+.) | 19.4 | 155.08
Clc1ccc(-c2ccccc2)cc1 [PCB 3] (APCI source condition: Dry, base ion: M+.) | 13.2 | 137.62
Clc1ccccc1-c1ccccc1Cl [PCB 4] (APCI source condition: Dry, base ion: M+.) | 13.6 | 137.64
Clc1ccc(-c2ccccc2Cl)cc1 [PCB 7] (APCI source condition: Dry, base ion: M+.) | 14.6 | 137.98
Clc1ccc(Cl)c(-c2ccccc2Cl)c1 [PCB 18] (APCI source condition: Dry, base ion: M+.) | 15.4 | 140.01
Clc1cccc(-c2cccc(Cl)c2Cl)c1 [PCB 20] (APCI source condition: Dry, base ion: M+.) | 16.6 | 140.68
Clc1ccc(-c2ccc(Cl)cc2Cl)cc1 [PCB 28] (APCI source condition: Dry, base ion: M+.) | 16.4 | 142.54

Compound | GC retention time [1] [min] | collision cross section [2] [Å²]
Clc1cccc(-c2cccc(Cl)c2Cl)c1Cl [PCB 40] (APCI source condition: Dry, base ion: M+.) | 17.9 | 144.96
Clc1ccc(Cl)c(-c2cc(Cl)ccc2Cl)c1 [PCB 52] (APCI source condition: Dry, base ion: M+.) | 17.1 | 149.21
Clc1ccc(Cl)c(-c2c(Cl)cccc2Cl)c1 [PCB 53] (APCI source condition: Dry, base ion: M+.) | 16.6 | 144.4
Clc1cc(-c2ccccc2)c(Cl)c(Cl)c1Cl [PCB 61] (APCI source condition: Dry, base ion: M+.) | 18.3 | 148.05
Clc1ccc(Cl)c(-c2cc(Cl)c(Cl)cc2Cl)c1 [PCB 101] (APCI source condition: Dry, base ion: M+.) | 18.8 | 155.45
Clc1ccc(-c2c(Cl)ccc(Cl)c2Cl)cc1Cl [PCB 110] (APCI source condition: Dry, base ion: M+.) | 19.4 | 152.9
Clc1ccc(-c2cc(Cl)c(Cl)cc2Cl)cc1Cl [PCB 118] (APCI source condition: Dry, base ion: M+.) | 19.9 | 156.06
Clc1ccc(-c2ccc(Cl)c(Cl)c2Cl)c(Cl)c1Cl [PCB 128] (APCI source condition: Dry, base ion: M+.) | 21.3 | 158.12
Clc1cc(Cl)c(-c2ccc(Cl)c(Cl)c2Cl)cc1Cl [PCB 138] (APCI source condition: Dry, base ion: M+.) | 20.8 | 159.68
Clc1cc(Cl)c(-c2c(Cl)ccc(Cl)c2Cl)cc1Cl [PCB 149] (APCI source condition: Dry, base ion: M+.) | 19.8 | 158.29
Clc1cc(Cl)c(-c2cc(Cl)c(Cl)cc2Cl)cc1Cl [PCB 153] (APCI source condition: Dry, base ion: M+.) | 20.3 | 161.05
Clc1ccc(-c2cc(Cl)c(Cl)c(Cl)c2Cl)c(Cl)c1Cl [PCB 170] (APCI source condition: Dry, base ion: M+.) | 22.5 | 165.18
Clc1cc(Cl)c(-c2cc(Cl)c(Cl)c(Cl)c2Cl)cc1Cl [PCB 180] (APCI source condition: Dry, base ion: M+.) | 22 | 166.55
Clc1cc(Cl)c(-c2c(Cl)c(Cl)cc(Cl)c2Cl)cc1Cl [PCB 187] (APCI source condition: Dry, base ion: M+.) | 21.1 | 165.54
Clc1ccc(Cl)c(-c2c(Cl)c(Cl)c(Cl)c(Cl)c2Cl)c1Cl [PCB 200] (APCI source condition: Dry, base ion: M+.) | 22.2 | 167.33
Brc1cc(Br)c(Br)c(Br)c1Br [Pentabromobenzene] (APCI source condition: Dry, base ion: M+.) | 18.5 | 135.24
Cc1c(Br)c(Br)c(Br)c(Br)c1Br [Pentabromotoluene] (APCI source condition: Dry, base ion: M+.) | 20.1 | 140.29
Clc1cc(Cl)c(Cl)c(Cl)c1Cl [Pentachlorobenzene] (APCI source condition: Dry, base ion: M+.) | 12.4 | 135.24
c1cc2cccc3c4cccc5cccc(c(c1)c23)c54 [Perylene] (APCI source condition: Dry, base ion: M+.) | 25 | 143.02
c1ccc2c(c1)ccc1ccccc12 [Phenanthrene] (APCI source condition: Dry, base ion: M+.) | 15.6 | 137.89
c1cc2ccc3cccc4ccc(c1)c2c34 [Pyrene] (APCI source condition: Dry, base ion: M+.) | 18.9 | 137.65
CCCCCCOP(=O)(OCCCCCC)OCCCCCC [Trihexyl phosphate] (APCI source condition: Wet, base ion: [M+H]+) | 19.4 | 201
O=P(Oc1ccccc1)(Oc1ccccc1)Oc1ccccc1 [Triphenylphosphate] (APCI source condition: Wet, base ion: [M+H]+) | 21.1 | 168.91
